From patent publication US20170210723A1, “MOLECULES HAVING PESTICIDAL UTILITY, AND INTERMEDIATES, COMPOSITIONS, AND PROCESSES, RELATED THERETO” (priority 2016, published 2017)

Tests used:
Assay type in all cases: in vivo
[1] = system: Beet Armyworm (Spodoptera exigua); experiment: Bioassays on BAW, 128-well diet tray assay; conditions: Spodoptera exigua; for mortality at 50 µg/cm2: 168 h, 50 μg/cm^2 on artificial diet, second instar larvae, five to seven days, read-out: BAW % Control (or Mortality) rating
[2] = system: Yellow Fever Mosquito (Aedes aegypti); experiment: Bioassays on Yellow Fever Mosquito larvae, 96-well plate; conditions: from 4000 ppm DMSO master plate, about 1 day-old larvae, 3 days
Description: Master plates containing 400 μg of a molecule dissolved in 100 μL of dimethyl sulfoxide (DMSO) (equivalent to a 4000 ppm solution) are used. A master plate of assembled molecules contains 15 μL per well. To this plate, 135 μL of a 90:10 water:acetone mixture is added to each well. A robot (Biomek® NXP Laboratory Automation Workstation) is programmed to dispense 15 μL aspirations from the master plate into an empty 96-well shallow plate (“daughter” plate). There are 6 reps (“daughter” plates) created per master. The created daughter plates are then immediately infested with YFM larvae.
The day before plates are to be treated, mosquito eggs are placed in Millipore water containing liver powder to begin hatching (4 g. into 400 mL). After the daughter plates are created using the robot, they are infested with 220 μL of the liver powder/larval mosquito mixture (about 1 day-old larvae). After plates are infested with mosquito larvae, a non-evaporative lid is used to cover the plate to reduce drying. Plates are held at room temperature for 3 days prior to grading. After 3 days, each well is observed and scored based on mortality. The results are indicated in the table entitled “Table ABC: Biological Results” (See Table Section). AGRICULTURALLY ACCEPTABLE ACID ADDITION SALTS, SALT DERIVATIVES, SOLVATES, ESTER DERIVATIVES, POLYMORPHS, ISOTOPES, AND RADIONUCLIDES

[3] = system: Cabbage Looper (Trichoplusia ni); experiment: Bioassays on CL, 128-well diet tray assay; conditions: Trichoplusia ni; for mortality at 50 µg/cm2: 168 h, 50 μg/cm^2 on artificial diet, second instar larvae, five to seven days, read-out: CL % Control (or Mortality) rating
Procedure, shortened: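 Test molecule at 50 μg/cm^2 applied to the artificial diet surface (acetone-water) and dried; one to five second-instar T. ni larvae per well, eight wells per treatment, held at 25° C., 14:10 light-dark for five to seven days. Percent mortality averaged over wells.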

Row | Compound | mortality at 50 µg/cm2 [1] | mortality at 0.05 µg/cm2 ([1]; 0.05 μg/cm^2, read-out: BAW Percent control (or mortality)) | mortality at 0.5 µg/cm2 ([1]; 0.5 μg/cm^2, read-out: BAW Percent control (or mortality)) | mortality at 5 µg/cm2 ([1]; 5 μg/cm^2, read-out: BAW Percent control (or mortality)) | YFM % Control (or Mortality) rating [2] | mortality at 50 µg/cm2 [3] | mortality at 0.05 µg/cm2 ([3]; 0.05 μg/cm^2, read-out: CL Percent control (or mortality)) | mortality at 0.5 µg/cm2 ([3]; 0.5 μg/cm^2, read-out: CL Percent control (or mortality)) | mortality at 5 µg/cm2 ([3]; 5 μg/cm^2, read-out: CL Percent control (or mortality))
1 | Cc1cc(/C=C/C(c2cc(Cl)c(Cl)c(Cl)c2)C(F)(F)F)ccc1C(=O)N[C@H](C)CS(=O)(=O)CC(F)(F)F (stereo partly drawn) [F40, 2-Methyl-4-((E)-4,4,4-trifluoro-3-(3,4,5-trichlorophenyl)but-1-en-1-yl)-N—((R)-1-((2,2,2-trifluoroethyl)sulfonyl)propan-2-yl)benzamide] | 50 to 100% | 60% | 100% | 100% | A (80-100) | 50 to 100% | 100% | 100% | 100%
2 | C[C@H](CSCC(F)(F)F)NC(=O)c1ccc(/C=C/C(c2cc(Br)c(Cl)c(Br)c2)C(F)(F)F)cc1C(F)(F)F (stereo partly drawn) [F41, 4-((E)-3-(3,5-Dibromo-4-chlorophenyl)-4,4,4-trifluorobut-1-en-1-yl)-N—((R)-1-((2,2,2-trifluoroethyl)thio)propan-2-yl)-2-(trifluoromethyl)benzamide] | 50 to 100% | – | – | – | A (80-100) | 50 to 100% | – | – | –
3 | C[C@H](C[S+]([O-])CC(F)(F)F)NC(=O)c1ccc(/C=C/C(c2cc(Br)c(Cl)c(Br)c2)C(F)(F)F)cc1C(F)(F)F (stereo partly drawn) [F42, 4-((E)-3-(3,5-Dibromo-4-chlorophenyl)-4,4,4-trifluorobut-1-en-1-yl)-N-((2R)-1-((2,2,2-trifluoroethyl)sulfinyl)propan-2-yl)-2-(trifluoromethyl)benzamide] | 50 to 100% | – | – | – | A (80-100) | 50 to 100% | – | – | –
4 | CC(C)(CSCC(F)(F)F)NC(=O)c1ccc(/C=C/C(c2cc(Cl)c(Cl)c(Cl)c2)C(F)(F)F)cc1C(F)(F)F (stereo not drawn) [F44, (E)-N-(2-methyl-1-((2,2,2-trifluoroethyl)thio)propan-2-yl)-4-(4,4,4-trifluoro-3-(3,4,5-trichlorophenyl)but-1-en-1-yl)-2-(trifluoromethyl)benzamide] | 50 to 100% | – | – | – | A (80-100) | 50 to 100% | – | – | –
5 | C[C@H](CS(=O)(=O)NCC(F)(F)F)NC(=O)c1ccc(/C=C/C(c2cc(Cl)c(Cl)c(Cl)c2)C(F)(F)F)cc1C(F)(F)F (stereo partly drawn) [F45, 4-((E)-4,4,4-Trifluoro-3-(3,4,5-trichorophenyl)but-1-en-1-yl)-N—((R)-1-(N-(2,2,2-trifluoroethyl)sulfamoyl)propan-2-yl)-2-(trifluoromethyl)benzamide] | 50 to 100% | – | – | – | A (80-100) | 50 to 100% | – | – | –
6 | Cc1cc(/C=C/C(c2cc(Cl)c(Cl)c(Cl)c2)C(F)(F)F)ccc1C(=O)N[C@H](C)C[S+]([O-])CC(F)(F)F (stereo partly drawn) [F46, 2-Methyl-4-((E)-4,4,4-trifluoro-3-(3,4,5-trichlorophenyl)but-1-en-1-yl)-N-((2R)-1-((2,2,2-trifluoroethyl)sulfinyl)propan-2-yl)benzamide] | 50 to 100% | – | – | – | A (80-100) | 50 to 100% | – | – | –
7 | CC(C)(CS(=O)(=O)CC(F)(F)F)NC(=O)c1ccc(/C=C/C(c2cc(Cl)c(Cl)c(Cl)c2)C(F)(F)F)cc1C(F)(F)F (stereo not drawn) [F48, (E)-N-(2-Methyl-1-((2,2,2-trifluoroethyl)sulfonyl)propan-2-yl)-4-(4,4,4-trifluoro-3-(3,4,5-trichlorophenyl)but-1-en-1-yl)-2-(trifluoromethyl)benzamide] | 50 to 100% | – | – | – | A (80-100) | 50 to 100% | – | – | –
8 | C[C@H](C[S+]([O-])CC(F)(F)F)NC(=O)c1ccc(/C=C/C(c2cc(Cl)c(Cl)c(Cl)c2)C(F)(F)F)cc1Cl (stereo partly drawn) [F50, 2-Chloro-4-((E)-4,4,4-trifluoro-3-(3,4,5-trichlorophenyl)but-1-en-1-yl)-N-((2R)-1-((2,2,2-trifluoroethyl)sulfinyl)propan-2-yl)benzamide] | 50 to 100% | – | – | – | A (80-100) | 50 to 100% | – | – | –
9 | Cc1cc(/C=C/C(c2cc(Cl)c(Cl)c(Cl)c2)C(F)(F)F)ccc1C(=O)N[C@H](C)CSCC(F)(F)F (stereo partly drawn) [F51, 2-Methyl-4-((E)-4,4,4-trifluoro-3-(3,4,5-trichlorophenyl)but-1-en-1-yl)-N—((R)-1-((2,2,2-trifluoroethyl)thio)propan-2-yl)benzamide] | 50 to 100% | – | – | – | A (80-100) | 50 to 100% | – | – | –
10 | C[C@H](CS(=O)(=O)CC(F)(F)F)NC(=O)c1ccc(/C=C/C(c2cc(Cl)c(F)c(Cl)c2)C(F)(F)F)cc1Br (stereo partly drawn) [F52, 2-Bromo-4-((E)-3-(3,5-dichloro-4-fluorophenyl)-4,4,4-trifluorobut-1-en-1-yl)-N—((R)-1-((2,2,2-trifluoroethyl)sulfonyl)propan-2-yl)benzamide] | 50 to 100% | – | – | – | A (80-100) | 50 to 100% | – | – | –
11 | C[C@H](C[S+]([O-])CC(F)(F)F)NC(=O)c1ccc(/C=C/C(c2cc(Cl)c(C#N)c(Cl)c2)C(F)(F)F)cc1C(F)(F)F (stereo partly drawn) [F53, 4-((E)-3-(3,5-Dichloro-4-cyanophenyl)-4,4,4-trifluorobut-1-en-1-yl)-N-((2R)-1-((2,2,2-trifluoroethyl)sulfinyl)propan-2-yl)-2-(trifluoromethyl)benzamide] | 50 to 100% | – | – | – | A (80-100) | 50 to 100% | – | – | –
12 | CCc1cc(/C=C/C(c2cc(Cl)c(Cl)c(Cl)c2)C(F)(F)F)ccc1C(=O)N[C@H](C)CSCC(F)(F)F (stereo partly drawn) [F54, 2-Ethyl-4-((E)-4,4,4-trifluoro-3-(3,4,5-trichlorophenyl)but-1-en-1-yl)-N—((R)-1-((2,2,2-trifluoroethyl)thio)propan-2-yl)benzamide] | 50 to 100% | – | – | – | A (80-100) | 50 to 100% | – | – | –
13 | Cc1cc(/C=C/C(c2cc(Br)cc(Br)c2)C(F)(F)F)ccc1C(=O)N[C@H](C)CSCC(F)(F)F (stereo partly drawn) [F57, 4-((E)-3-(3,5-Dibromophenyl)-4,4,4-trifluorobut-1-en-1-yl)-2-methyl-N—((R)-1-((2,2,2-trifluoroethyl)thio)propan-2-yl)benzamide] | 50 to 100% | – | – | – | A (80-100) | 50 to 100% | – | – | –
14 | C[C@H](C[S+]([O-])CC(F)(F)F)NC(=O)c1ccc(/C=C/C(c2cc(Br)cc(Br)c2)C(F)(F)F)cc1C(F)(F)F (stereo partly drawn) [F60, 4-((E)-3-(3,5-Dibromophenyl)-4,4,4-trifluorobut-1-en-1-yl)-N-((2R)-1-((2,2,2-trifluoroethyl)sulfinyl)propan-2-yl)-2-(trifluoromethyl)benzamide] | 50 to 100% | – | – | – | A (80-100) | 50 to 100% | – | – | –
15 | C[C@H](CS(=O)(=O)CC(F)(F)F)NC(=O)c1ccc(/C=C/C(c2cc(Br)cc(Br)c2)C(F)(F)F)cc1C(F)(F)F (stereo partly drawn) [F61, 4-((E)-3-(3,5-Dibromophenyl)-4,4,4-trifluorobut-1-en-1-yl)-N—((R)-1-((2,2,2-trifluoroethyl)sulfonyl)propan-2-yl)-2-(trifluoromethyl)benzamide] | 50 to 100% | – | – | – | A (80-100) | 50 to 100% | – | – | –
16 | CCSC[C@@H](C)NC(=O)c1ccc(/C=C/C(c2cc(Cl)c(Cl)c(Cl)c2)C(F)(F)F)cc1C(F)(F)F (stereo partly drawn) [F62, N—((R)-1-(Ethylthio)propan-2-yl)-4-((E)-4,4,4-trifluoro-3-(3,4,5-trichlorophenyl)but-1-en-1-yl)-2-(trifluoromethyl)benzamide] | 50 to 100% | – | – | – | A (80-100) | 50 to 100% | – | – | –
17 | O=C(NC1(C[S+]([O-])CC(F)(F)F)CC1)c1ccc(/C=C/C(c2cc(Cl)c(Cl)c(Cl)c2)C(F)(F)F)cc1C(F)(F)F (stereo not drawn) [F63, (E)-4-(4,4,4-Trifluoro-3-(3,4,5-trichlorophenyl)but-1-en-1-yl)-N-(1-(((2,2,2-trifluoroethyl)sulfinyl)methyl)cyclopropyl)-2-(trifluoromethyl)benzamide] | 50 to 100% | – | – | – | A (80-100) | 50 to 100% | – | – | –
18 | C[C@H](CSCC(F)(F)F)NC(=O)c1ccc(/C=C/C(c2cc(Br)cc(Br)c2)C(F)(F)F)cc1Cl (stereo partly drawn) [F64, 2-Chloro-4-((E)-3-(3,5-dibromophenyl)-4,4,4-trifluorobut-1-en-1-yl)-N—((R)-1-((2,2,2-trifluoroethyl)thio)propan-2-yl)benzamide] | 50 to 100% | – | – | – | A (80-100) | 50 to 100% | – | – | –
